Data taken from ChEMBL document CHEMBL5154755, “Discovery of Novel Indazoles as Potent and Selective PI3Kδ Inhibitors with High Efficacy for Treatment of Hepatocellular Carcinoma” (J Med Chem, 2022).

Assays:
[1] = target: T1, Phosphatidylinositol 4,5-bisphosphate 3-kinase catalytic subunit delta isoform (Homo sapiens, UniProt O00329); assay: Inhibition of PI3Kdelta (unknown origin) using PIP2 as substrate incubated for 1 hr in presence of ATP by ADP-Glo assay
T1 sequence (O00329 whole entry): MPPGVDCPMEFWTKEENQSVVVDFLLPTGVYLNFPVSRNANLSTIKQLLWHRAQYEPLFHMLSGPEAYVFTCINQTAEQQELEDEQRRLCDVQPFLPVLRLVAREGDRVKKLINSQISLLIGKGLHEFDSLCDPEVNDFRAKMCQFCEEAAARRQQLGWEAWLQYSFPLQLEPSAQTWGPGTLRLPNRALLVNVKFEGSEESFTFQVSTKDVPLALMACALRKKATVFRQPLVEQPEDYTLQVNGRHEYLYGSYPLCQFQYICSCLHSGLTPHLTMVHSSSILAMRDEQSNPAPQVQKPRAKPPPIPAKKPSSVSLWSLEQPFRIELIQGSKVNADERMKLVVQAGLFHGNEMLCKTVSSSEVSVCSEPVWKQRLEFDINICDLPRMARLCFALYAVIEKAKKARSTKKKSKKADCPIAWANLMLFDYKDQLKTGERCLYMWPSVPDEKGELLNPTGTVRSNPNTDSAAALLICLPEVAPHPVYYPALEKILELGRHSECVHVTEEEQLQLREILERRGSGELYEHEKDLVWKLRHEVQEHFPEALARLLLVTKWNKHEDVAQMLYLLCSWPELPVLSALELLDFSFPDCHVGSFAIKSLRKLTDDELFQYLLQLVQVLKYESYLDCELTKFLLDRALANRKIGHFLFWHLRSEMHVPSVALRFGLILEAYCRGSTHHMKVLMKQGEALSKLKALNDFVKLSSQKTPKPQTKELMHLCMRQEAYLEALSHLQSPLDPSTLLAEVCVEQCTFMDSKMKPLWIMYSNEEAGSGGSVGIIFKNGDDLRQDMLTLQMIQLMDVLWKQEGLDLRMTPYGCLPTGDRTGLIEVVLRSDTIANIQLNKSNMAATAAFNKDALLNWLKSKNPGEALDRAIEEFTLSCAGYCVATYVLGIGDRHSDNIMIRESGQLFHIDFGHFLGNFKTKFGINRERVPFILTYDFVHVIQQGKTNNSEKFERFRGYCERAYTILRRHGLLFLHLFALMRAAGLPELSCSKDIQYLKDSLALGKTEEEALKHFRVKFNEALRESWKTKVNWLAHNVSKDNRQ

Bel-7402 [2] = assay: Antiproliferative activity against human Bel-7402 cells assessed as inhibition of cell growth incubated for 72 hrs by SRB assay; type: functional, cell-based; conditions: Bel-7402, 72 h
Hep 3B2 [3] = assay: Antiproliferative activity against human Hep3B cells assessed as inhibition of cell growth incubated for 72 hrs by SRB assay; type: functional, cell-based
Bel-7402 [4] = assay: cells; conditions: Homo sapiens, Bel-7402, 72 h, read-out: INH
HepG2 [5] = assay: cells; conditions: Homo sapiens, HepG2, 72 h, read-out: INH
Hep 3B2 [6] = assay: cells; conditions: Homo sapiens, Hep3B, 72 h, read-out: INH
HepG2 [7] = assay: cells; conditions: Homo sapiens, HepG2, 72 h
Description: Antiproliferative activity against human HepG2 cells assessed as inhibition of cell growth incubated for 72 hrs by SRB assay

[8] = target: Phosphatidylinositol 4,5-bisphosphate 3-kinase catalytic subunit alpha isoform (Homo sapiens, UniProt P42336); assay: Inhibition of PI3Kalpha (unknown origin) using PIP2 as substrate incubated for 1 hr in presence of ATP by ADP-Glo assay
[9] = target: Phosphatidylinositol 4,5-bisphosphate 3-kinase catalytic subunit beta isoform (Homo sapiens, UniProt P42338); assay: Inhibition of PI3Kbeta (unknown origin) using PIP2 as substrate incubated for 1 hr in presence of ATP by ADP-Glo assay
[10] = target: Phosphatidylinositol 4,5-bisphosphate 3-kinase catalytic subunit gamma isoform (Homo sapiens, UniProt P48736); assay: Inhibition of PI3Kgamma (unknown origin) using PIP2 as substrate incubated for 1 hr in presence of ATP by ADP-Glo assay
Chain of Phosphatidylinositol 4,5-bisphosphate 3-kinase catalytic subunit gamma isoform (P48736 whole entry, canonical isoform): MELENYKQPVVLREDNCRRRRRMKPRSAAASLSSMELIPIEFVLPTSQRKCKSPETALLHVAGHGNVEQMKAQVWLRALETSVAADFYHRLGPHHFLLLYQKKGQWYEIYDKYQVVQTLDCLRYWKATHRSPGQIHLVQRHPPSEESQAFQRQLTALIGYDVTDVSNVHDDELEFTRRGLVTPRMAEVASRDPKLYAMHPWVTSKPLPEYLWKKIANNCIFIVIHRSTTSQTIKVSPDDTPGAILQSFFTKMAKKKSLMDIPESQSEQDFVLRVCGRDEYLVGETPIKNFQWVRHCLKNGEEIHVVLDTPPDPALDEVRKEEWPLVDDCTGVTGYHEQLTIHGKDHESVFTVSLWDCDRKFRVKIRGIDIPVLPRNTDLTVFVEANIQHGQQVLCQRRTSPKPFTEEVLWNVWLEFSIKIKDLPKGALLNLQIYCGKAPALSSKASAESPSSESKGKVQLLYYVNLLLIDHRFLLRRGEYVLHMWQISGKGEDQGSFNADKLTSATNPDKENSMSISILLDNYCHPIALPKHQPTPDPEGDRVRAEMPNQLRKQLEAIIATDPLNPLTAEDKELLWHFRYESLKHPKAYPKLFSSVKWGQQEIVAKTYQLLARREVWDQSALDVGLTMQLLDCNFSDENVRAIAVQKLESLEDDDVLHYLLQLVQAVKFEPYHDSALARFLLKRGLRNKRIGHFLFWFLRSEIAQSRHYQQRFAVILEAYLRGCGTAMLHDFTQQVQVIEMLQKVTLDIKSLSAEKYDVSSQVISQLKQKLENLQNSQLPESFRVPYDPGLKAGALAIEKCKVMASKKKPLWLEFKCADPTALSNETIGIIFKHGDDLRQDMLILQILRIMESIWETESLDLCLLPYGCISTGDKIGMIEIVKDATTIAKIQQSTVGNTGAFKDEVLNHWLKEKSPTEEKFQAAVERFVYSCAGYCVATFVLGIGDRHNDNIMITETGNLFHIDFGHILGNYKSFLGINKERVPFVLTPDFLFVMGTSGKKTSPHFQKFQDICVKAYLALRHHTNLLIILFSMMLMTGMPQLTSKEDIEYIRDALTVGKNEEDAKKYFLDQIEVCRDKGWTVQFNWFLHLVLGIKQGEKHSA

Chain of Phosphatidylinositol 4,5-bisphosphate 3-kinase catalytic subunit alpha isoform (P42336 whole entry, canonical isoform): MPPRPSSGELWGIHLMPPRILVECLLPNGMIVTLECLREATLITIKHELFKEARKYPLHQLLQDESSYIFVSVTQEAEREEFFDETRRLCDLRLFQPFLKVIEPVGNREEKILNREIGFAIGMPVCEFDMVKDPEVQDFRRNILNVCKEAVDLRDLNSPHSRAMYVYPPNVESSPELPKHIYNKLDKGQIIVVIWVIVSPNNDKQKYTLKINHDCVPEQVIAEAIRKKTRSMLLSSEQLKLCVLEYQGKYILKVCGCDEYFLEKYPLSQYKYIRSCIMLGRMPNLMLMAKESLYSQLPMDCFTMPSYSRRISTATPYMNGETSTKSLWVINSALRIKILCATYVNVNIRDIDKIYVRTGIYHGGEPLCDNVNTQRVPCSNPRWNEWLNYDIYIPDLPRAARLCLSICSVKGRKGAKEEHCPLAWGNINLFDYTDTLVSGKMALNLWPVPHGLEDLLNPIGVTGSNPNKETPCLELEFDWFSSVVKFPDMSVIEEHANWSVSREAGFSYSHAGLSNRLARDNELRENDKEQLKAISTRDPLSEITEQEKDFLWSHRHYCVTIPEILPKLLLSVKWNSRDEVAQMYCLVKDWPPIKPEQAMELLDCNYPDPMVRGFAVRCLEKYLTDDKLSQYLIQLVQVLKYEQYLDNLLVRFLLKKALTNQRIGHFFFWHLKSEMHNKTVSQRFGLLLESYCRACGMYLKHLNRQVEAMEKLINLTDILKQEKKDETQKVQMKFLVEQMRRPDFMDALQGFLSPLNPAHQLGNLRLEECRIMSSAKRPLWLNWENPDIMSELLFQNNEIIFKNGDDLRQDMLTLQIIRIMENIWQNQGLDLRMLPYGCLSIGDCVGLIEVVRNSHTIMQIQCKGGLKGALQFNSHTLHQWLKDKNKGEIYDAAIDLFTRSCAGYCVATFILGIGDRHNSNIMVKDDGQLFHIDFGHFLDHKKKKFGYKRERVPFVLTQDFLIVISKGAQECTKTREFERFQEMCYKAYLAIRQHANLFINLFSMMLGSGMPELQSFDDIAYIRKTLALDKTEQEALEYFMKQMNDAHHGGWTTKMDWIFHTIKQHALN
Chain of Phosphatidylinositol 4,5-bisphosphate 3-kinase catalytic subunit beta isoform (P42338 whole entry, canonical isoform): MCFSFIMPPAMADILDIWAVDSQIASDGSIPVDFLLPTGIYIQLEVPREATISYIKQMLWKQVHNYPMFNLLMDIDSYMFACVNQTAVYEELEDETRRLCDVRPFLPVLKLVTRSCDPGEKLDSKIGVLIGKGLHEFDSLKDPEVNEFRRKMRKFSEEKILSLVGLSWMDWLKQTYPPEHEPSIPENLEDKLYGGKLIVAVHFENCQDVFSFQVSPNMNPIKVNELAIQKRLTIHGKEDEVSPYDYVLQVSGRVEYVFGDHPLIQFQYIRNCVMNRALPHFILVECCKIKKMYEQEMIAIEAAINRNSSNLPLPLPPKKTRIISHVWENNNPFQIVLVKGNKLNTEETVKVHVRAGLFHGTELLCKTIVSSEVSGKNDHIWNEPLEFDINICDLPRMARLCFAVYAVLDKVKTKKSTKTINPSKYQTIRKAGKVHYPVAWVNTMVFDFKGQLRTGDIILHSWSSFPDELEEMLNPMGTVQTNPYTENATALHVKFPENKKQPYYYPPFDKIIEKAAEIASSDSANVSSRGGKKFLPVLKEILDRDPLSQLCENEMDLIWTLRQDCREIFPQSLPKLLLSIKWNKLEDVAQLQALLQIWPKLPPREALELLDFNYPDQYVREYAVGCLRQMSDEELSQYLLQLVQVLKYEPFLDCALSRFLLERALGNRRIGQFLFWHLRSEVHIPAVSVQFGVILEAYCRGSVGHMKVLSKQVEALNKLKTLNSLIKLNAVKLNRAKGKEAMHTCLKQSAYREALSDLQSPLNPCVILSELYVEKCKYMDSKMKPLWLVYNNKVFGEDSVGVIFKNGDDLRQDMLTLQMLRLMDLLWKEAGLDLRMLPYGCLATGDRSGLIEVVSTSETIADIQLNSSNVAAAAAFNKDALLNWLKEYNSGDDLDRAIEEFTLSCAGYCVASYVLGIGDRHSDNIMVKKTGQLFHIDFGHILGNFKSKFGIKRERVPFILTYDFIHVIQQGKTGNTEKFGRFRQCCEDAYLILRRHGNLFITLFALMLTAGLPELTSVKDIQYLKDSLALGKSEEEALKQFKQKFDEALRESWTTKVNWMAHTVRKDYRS

SMILES	IC50 [1] [µM]	IC50 (Bel-7402 [2]) [µM]	IC50 (HepG2 [7]) [µM]	IC50 [8] [µM]	IC50 [9] [µM]	IC50 [10] [µM]	IC50 (Hep 3B2 [3]) [µM]	inhibition at 10 µM (Bel-7402 [4]) [%]	inhibition at 10 µM (HepG2 [5]) [%]	inhibition at 10 µM (Hep 3B2 [6]) [%]
CC[C@H](Nc1ncnc2[nH]cnc12)c1nn(-c2cccnc2)c2cc(F)ccc12	0.059	29	33.9	–	–	–	> 40	12	26	4
CC[C@H](Nc1nc(N)nc(N)c1C#N)c1nn(-c2cccnc2)c2cc(Cl)ccc12	0.0012	5.59	4.77	0.576	0.031	> 1	12.1	56	59	56
C[C@H](Nc1nc(N)nc(N)c1C#N)c1nn(-c2cccnc2)c2cc(F)ccc12	0.0037	29.8	23.2	–	–	–	23.8	15	29	30
C[C@H](Nc1ncnc(N)c1C#N)c1nn(-c2cccnc2)c2cc(F)ccc12	0.021	37.4	25.4	–	–	–	19.2	-4	56	30
C[C@H](Nc1ncccc1C#N)c1nn(-c2cccnc2)c2cc(F)ccc12	> 10	> 40	> 40	–	–	–	> 40	11	24	10
C[C@H](Nc1ncnc2[nH]cnc12)c1nn(-c2cccnc2)c2ccccc12	0.038	11.2	20.6	–	–	–	36.6	40	62	21
CC(Nc1ncnc2[nH]cnc12)c1nn(-c2cccnc2)c2ccccc12 (racemic)	0.392	16.1	26.2	–	–	–	40.3	4	13	9
C[C@H](Nc1nc(N)nc(N)c1C#N)c1nn(-c2cccnc2)c2cc(C(F)(F)F)ccc12	0.286	3.19	1.68	–	–	–	9.71	60	36	69
C[C@H](Nc1nc(N)nc(N)c1C#N)c1nn(-c2cccnc2)c2ccccc12	0.004	34.6	32.5	–	–	–	26.5	12	10	20
CC[C@H](Nc1nc(N)nc(N)c1C#N)c1nn(-c2cccnc2)c2cc(F)ccc12	0.0021	> 40	> 40	–	–	–	37.5	29	28	32
Cc1ccc2c(c1)c([C@H](C)Nc1ncnc3[nH]cnc13)nn2-c1cccnc1	0.274	> 40	> 40	–	–	–	> 40	-10	18	8
C[C@H](Nc1nc(N)nc(N)c1C#N)c1nn(-c2cccc(S(C)(=O)=O)c2)c2cc(Cl)ccc12	0.0021	4.46	1.88	> 1	0.047	> 1	5.11	47	56	72
C[C@H](Nc1nc(N)nc(N)c1C#N)c1nn(-c2cccc(S(C)(=O)=O)c2)c2cc(F)ccc12	0.0026	22.1	19.1	–	–	–	19.7	14	24	36
C[C@H](Nc1nc(N)nc2[nH]cnc12)c1nn(-c2cccnc2)c2cc(F)ccc12	0.039	> 40	> 40	–	–	–	> 40	-5	11	14
C[C@H](Nc1nc(N)nc(N)c1C#N)c1nn(-c2ccncc2)c2cc(F)ccc12	0.0057	8.31	7.48	–	–	–	11.6	43	84	50

Continued, in another order:

IC50 [1] [µM]	IC50 (Bel-7402 [2]) [µM]	IC50 (HepG2 [7]) [µM]	IC50 [8] [µM]	IC50 [9] [µM]	IC50 [10] [µM]	SMILES	IC50 (Hep 3B2 [3]) [µM]	inhibition at 10 µM (Bel-7402 [4]) [%]	inhibition at 10 µM (HepG2 [5]) [%]	inhibition at 10 µM (Hep 3B2 [6]) [%]
0.052	> 40	23.1	–	–	–	C[C@H](Nc1ncnc2[nH]cnc12)c1nn(-c2ccncc2)c2cc(F)ccc12	21.4	16	47	5
0.038	> 40	37.5	–	–	–	C[C@H](Nc1ncnc2[nH]cnc12)c1nn(-c2cccnc2)c2cc(F)ccc12	34.5	8	23	20
0.423	> 40	22.1	–	–	–	C[C@H](Nc1ncnc2[nH]cnc12)c1nn(-c2cc(F)cc(F)c2)c2cc(F)ccc12	> 40	-8	30	14
0.0123	20	14.8	–	–	–	C[C@H](Nc1ncnc2[nH]cnc12)c1nn(-c2cccc(S(C)(=O)=O)c2)c2cc(F)ccc12	13	-16	23	11
0.0077	> 40	> 40	–	–	–	C[C@H](Nc1ncnc2[nH]cnc12)c1nn(-c2cccnc2)c2cc(Cl)ccc12	> 40	17	13	13
2.28	> 40	29.9	–	–	–	C[C@H](Nc1ncnc2[nH]cnc12)c1nn(-c2ccccn2)c2cc(F)ccc12	> 40	7	22	12
0.101	31.9	41.9	–	–	–	C[C@H](Nc1ncnc2[nH]cnc12)c1nn(-c2cccnc2)c2ccc(F)cc12	40.1	-22	8	13
0.22	31.5	15.1	–	–	–	C[C@H](Nc1ncnc2[nH]cnc12)c1nn(-c2ccc(C#N)cc2)c2cc(F)ccc12	13.5	0	57	46
0.072	> 40	> 40	–	–	–	CC(C)[C@H](Nc1ncnc2[nH]cnc12)c1nn(-c2cccnc2)c2cc(F)ccc12	> 40	5	16	4
0.485	> 40	32.3	–	–	–	C[C@H](Nc1ncnc2[nH]cnc12)c1nn(-c2cccc(F)c2)c2cc(F)ccc12	> 40	-17	33	28
